# Assay results: US12297190B2, “Modulators of STING (stimulator of interferon genes)” (PFIZER INC., priority 2019, dated 2025)
# Biological target: R232-STING (Homo sapiens, UniProt Q86WV6, H232R)
# Assay: biochemical
# Chain of R232-STING (Q86WV6 155-341 H232R): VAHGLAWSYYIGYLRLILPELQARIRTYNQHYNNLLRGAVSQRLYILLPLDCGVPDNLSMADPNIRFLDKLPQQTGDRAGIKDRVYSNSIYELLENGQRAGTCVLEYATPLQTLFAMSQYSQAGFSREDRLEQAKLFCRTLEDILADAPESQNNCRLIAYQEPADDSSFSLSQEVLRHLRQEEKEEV
row,SMILES,Ki
1,"CCc1nc(C)n(C)c1-c1n[nH]c(-c2cc(C(N)=O)cc3c2cnn3C)n1 [ZZZ056, 4-[3-(4-ethyl-1,2-dimethyl-1H-imidazol-5-yl)-1H-1,2,4-triazol-5-yl]-1-methyl-1H-indazole-6-carboxamide]",> 0.99 µM
2,"CCn1nc(C)cc1-c1n[nH]c(-c2cc(C(N)=O)cc3c2cnn3CCN2CC3(CCCO3)C2)n1 [ZZZ094, 4-[3-(1-ethyl-3-methyl-1H-pyrazol-5-yl)-1H-1,2,4-triazol-5-yl]-1-[2-(5-oxa-2-azaspiro[3.4]octan-2-yl)ethyl]-1H-indazole-6-carboxamide]",0.55 µM
3,"CCn1nc(C)cc1-c1nnc(-c2cc(C(N)=O)cc3nn(CCN(C)C)cc23)[nH]1 [ZZZ006, 2-[2-(dimethylamino)ethyl]-4-[5-(1-ethyl-3-methyl-1H-pyrazol-5-yl)-4H-1,2,4-triazol-3-yl]-2H-indazole-6-carboxamide]",> 0.99 µM
4,"CCn1nc(C)cc1-c1nnc(-c2cc(C(N)=O)cc3c2cnn3CCOCCN(C)C)[nH]1 [ZZZ021, 1-{2-[2-(dimethylamino)ethoxy]ethyl}-4-[5-(1-ethyl-3-methyl-1H-pyrazol-5-yl)-4H-1,2,4-triazol-3-yl]-1H-indazole-6-carboxamide]",> 0.99 µM
5,"CCn1nc(C(=O)O)cc1-c1nc(-c2nc(C(N)=O)cc3c2cnn3C)n(C)n1 [ZZZ083, 5-[5-(6-carbamoyl-1-methyl-1H-pyrazolo[4,3-c]pyridin-4-yl)-1-methyl-1H-1,2,4-triazol-3-yl]-1-ethyl-1H-pyrazole-3-carboxylic acid]",> 0.27 µM
6,"CCn1nc(C)cc1-c1n[nH]c(-c2cc(C(N)=O)cc3c2cnn3CCN2CCOC[C@@H]2C2CC2)n1 (racemic) [ZZZ099, 1-{2-[(3S)-3-cyclopropylmorpholin-4-yl]ethyl}-4-[3-(1-ethyl-3-methyl-1H-pyrazol-5-yl)-1H-1,2,4-triazol-5-yl]-1H-indazole-6-carboxamide]",0.723 µM
7,"CCn1nc(C)cc1-c1nnc(-c2cc(C(N)=O)cc3c2cnn3CCN2CCC2)[nH]1 [ZZZ039, 1-[2-(azetidin-1-yl)ethyl]-4-[5-(1-ethyl-3-methyl-1H-pyrazol-5-yl)-4H-1,2,4-triazol-3-yl]-1H-indazole-6-carboxamide]",> 0.99 µM
8,"CCn1nc(C)cc1-c1n[nH]c(-c2cc(C(N)=O)cc3c2cnn3CCN2CCO[C@@H](COC)C2)n1 (racemic) [ZZZ114, 4-[3-(1-ethyl-3-methyl-1H-pyrazol-5-yl)-1H-1,2,4-triazol-5-yl]-1-{2-[(2R)-2-(methoxymethyl)morpholin-4-yl]ethyl}-1H-indazole-6-carboxamide]",0.943 µM
9,"CCn1nc(C)cc1-c1nnc(-c2cc(C(N)=O)cc3c2cnn3[C@H](C)C2CCN(C)CC2)[nH]1 (racemic) [ZZZ041, 4-[5-(1-ethyl-3-methyl-1H-pyrazol-5-yl)-4H-1,2,4-triazol-3-yl]-1-[(1R)-1-(1-methylpiperidin-4-yl)ethyl]-1H-indazole-6-carboxamide]",> 0.99 µM
10,"CCn1nc(C)cc1-c1nnc(-c2cc(C(N)=O)cc3c2cnn3[C@@H](C)CN2CCCC2)[nH]1 [ZZZ024, 4-[5-(1-ethyl-3-methyl-1H-pyrazol-5-yl)-4H-1,2,4-triazol-3-yl]-1-[(2S)-1-(pyrrolidin-1-yl)propan-2-yl]-1H-indazole-6-carboxamide]",> 0.99 µM
11,"CCn1nc(C)cc1-c1n[nH]c(-c2cc(C(N)=O)cc3c2cnn3CCN2CCC23CC3)n1 [ZZZ093, 1-[2-(4-azaspiro[2.3]hexan-4-yl)ethyl]-4-[3-(1-ethyl-3-methyl-1H-pyrazol-5-yl)-1H-1,2,4-triazol-5-yl]-1H-indazole-6-carboxamide]",> 0.99 µM
12,"CCn1nc(C)cc1-c1nnc(-c2cc(C(N)=O)cc3c2cnn3CC23CCCN2CCC3)[nH]1 [ZZZ019, 4-[5-(1-ethyl-3-methyl-1H-pyrazol-5-yl)-4H-1,2,4-triazol-3-yl]-1-[(tetrahydro-1H-pyrrolizin-7a(5H)-yl)methyl]-1H-indazole-6-carboxamide]",0.726 µM
13,"CCn1nc(C)cc1-c1n[nH]c(-c2cc(C(N)=O)cc3c2cnn3CCN2CCO[C@@H](CO)C2)n1 (racemic) [ZZZ092, 4-[3-(1-ethyl-3-methyl-1H-pyrazol-5-yl)-1H-1,2,4-triazol-5-yl]-1-{2-[(2R)-2-(hydroxymethyl)morpholin-4-yl]ethyl}-1H-indazole-6-carboxamide]",0.969 µM

# More lines, now with the values ahead:
row,Ki,SMILES
1,0.623 µM,"CCn1nc(C)cc1-c1n[nH]c(-c2cc(C(N)=O)cc3c2cnn3CCN2CC3CCC3C2)n1 (stereo not shown) [ZZZ110, 1-[2-(3-azabicyclo[3.2.0]heptan-3-yl)ethyl]-4-[3-(1-ethyl-3-methyl-1H-pyrazol-5-yl)-1H-1,2,4-triazol-5-yl]-1H-indazole-6-carboxamide]"
2,0.373 µM,"CCn1nc(C)cc1-c1n[nH]c(-c2cc(C(N)=O)cc3c2cnn3CCN2CCO[C@@H](C)C2)n1 (racemic) [YY08, 4-[5-(1-ethyl-3-methyl-1H-pyrazol-5-yl)-4H-1,2,4-triazol-3-yl]-1-{2-[(2S)-2-methylmorpholin-4-yl]ethyl}-1H-indazole-6-carboxamide]"
3,> 0.99 µM,"CCn1nc(C)cc1-c1n[nH]c(-c2cc(C(N)=O)cc3c2cnn3CCN2C3COCC2C3)n1 [ZZZ090, 4-[3-(1-ethyl-3-methyl-1H-pyrazol-5-yl)-1H-1,2,4-triazol-5-yl]-1-[2-(3-oxa-6-azabicyclo[3.1.1]heptan-6-yl)ethyl]-1H-indazole-6-carboxamide]"
4,0.509 µM,"CCn1nc(C)cc1-c1n[nH]c(-c2cc(C(N)=O)cc3c2cnn3CCN(C)CC#N)n1 [ZZZ101, 1-{2-[(cyanomethyl)(methyl)amino]ethyl}-4-[3-(1-ethyl-3-methyl-1H-pyrazol-5-yl)-1H-1,2,4-triazol-5-yl]-1H-indazole-6-carboxamide]"
5,0.879 µM,"CCn1nc(C)cc1-c1n[nH]c(-c2cc(C(N)=O)cc3c2cnn3CCN(C)CC(N)=O)n1 [ZZZ105, 1-{2-[(2-amino-2-oxoethyl)(methyl)amino]ethyl}-4-[3-(1-ethyl-3-methyl-1H-pyrazol-5-yl)-1H-1,2,4-triazol-5-yl]-1H-indazole-6-carboxamide]"
6,> 0.99 µM,"CCn1nc(C)cc1-c1n[nH]c(-c2nc(C(N)=O)cc3cn[nH]c23)n1 [ZZZ010, 7-[3-(1-ethyl-3-methyl-1H-pyrazol-5-yl)-1H-1,2,4-triazol-5-yl]-1H-pyrazolo[3,4-c]pyridine-5-carboxamide]"
7,0.848 µM,"CCn1nc(C)cc1-c1n[nH]c(-c2cc(C(N)=O)cc3c2cnn3CCN2CCO[C@@H](C3CC3)C2)n1 (racemic) [ZZZ117, 1-{2-[(2S)-2-cyclopropylmorpholin-4-yl]ethyl}-4-[3-(1-ethyl-3-methyl-1H-pyrazol-5-yl)-1H-1,2,4-triazol-5-yl]-1H-indazole-6-carboxamide]"
8,> 0.99 µM,"CCn1nc(C)cc1-c1nc(C(=O)O)c(-c2nc(C(N)=O)cc3c2cnn3C)o1 [ZZZ131, 5-(6-carbamoyl-1-methyl-1H-pyrazolo[4,3-c]pyridin-4-yl)-2-(1-ethyl-3-methyl-1H-pyrazol-5-yl)-1,3-oxazole-4-carboxylic acid]"
9,0.85 µM,"CCn1nc(C)cc1-c1nnc(-c2cc(C(N)=O)cc3c2cnn3CCCN(C)C)[nH]1 [ZZZ007, 1-[3-(dimethylamino)propyl]-4-[5-(1-ethyl-3-methyl-1H-pyrazol-5-yl)-4H-1,2,4-triazol-3-yl]-1H-indazole-6-carboxamide]"
10,0.541 µM,"CCn1nc(C)cc1-c1nnc(-c2cc(C(N)=O)cc3c2cnn3CC23CCCC2CNC3)[nH]1 (stereo not shown) [ZZZ060, 4-[5-(1-ethyl-3-methyl-1H-pyrazol-5-yl)-4H-1,2,4-triazol-3-yl]-1-[(hexahydrocyclopenta[c]pyrrol-3a(1H)-yl)methyl]-1H-indazole-6-carboxamide]"
11,0.826 µM,"CCn1nc(C)cc1-c1nnc(-c2cc(C(N)=O)cc3c2cnn3CC2CCCN3CCCCC23)[nH]1 (stereo not shown) [ZZZ016, 4-[5-(1-ethyl-3-methyl-1H-pyrazol-5-yl)-4H-1,2,4-triazol-3-yl]-1-[(octahydro-2H-quinolizin-1-yl)methyl]-1H-indazole-6-carboxamide]"
12,> 0.99 µM,"CCn1nc(C)cc1-c1nnc(-c2cc(C(N)=O)cc3c2cnn3CC[C@@H]2CCCN(C)C2)[nH]1 (racemic) [ZZZ042, 4-[5-(1-ethyl-3-methyl-1H-pyrazol-5-yl)-4H-1,2,4-triazol-3-yl]-1-{2-[(3S)-1-methylpiperidin-3-yl]ethyl}-1H-indazole-6-carboxamide]"
13,0.912 µM,"CCn1nc(C)c(C(F)(F)F)c1-c1nnc(-c2cc(C(N)=O)cc3c2cnn3C)[nH]1 [ZZZ048, 4-{5-[1-ethyl-3-methyl-4-(trifluoromethyl)-1H-pyrazol-5-yl]-4H-1,2,4-triazol-3-yl}-1-methyl-1H-indazole-6-carboxamide]"
14,0.727 µM,"CCn1nc(C)cc1-c1nnc(-c2cc(C(N)=O)cc3c2cnn3CCCCN2CCOCC2)[nH]1 [ZZZ037, 4-[5-(1-ethyl-3-methyl-1H-pyrazol-5-yl)-4H-1,2,4-triazol-3-yl]-1-[4-(morpholin-4-yl)butyl]-1H-indazole-6-carboxamide]"
15,0.773 µM,"CCn1nc(C)cc1-c1n[nH]c(-c2cc(C(N)=O)cc3c2cnn3CCN2CCC3CC3C2)n1 (stereo not shown) [ZZZ095, 1-[2-(3-azabicyclo[4.1.0]heptan-3-yl)ethyl]-4-[3-(1-ethyl-3-methyl-1H-pyrazol-5-yl)-1H-1,2,4-triazol-5-yl]-1H-indazole-6-carboxamide]"
16,> 0.0901 µM,"CCn1nc(C)c(O)c1-c1nc(-c2nc(C(N)=O)cc3[nH]ncc23)n(C)n1 [ZZZ084, 4-[3-(1-ethyl-4-hydroxy-3-methyl-1H-pyrazol-5-yl)-1-methyl-1H-1,2,4-triazol-5-yl]-1H-pyrazolo[4,3-c] pyridine-6-carboxamide]"
17,0.961 µM,"CCn1nc(C)cc1-c1nnc(-c2cc(C(N)=O)cc3c2cnn3[C@H]2CC[C@@H](NC)CC2)[nH]1 [ZZZ075, 4-[5-(1-ethyl-3-methyl-1H-pyrazol-5-yl)-4H-1,2,4-triazol-3-yl]-1-[(1s,4s)-4-(methylamino)cyclohexyl]-1H-indazole-6-carboxamide]"
18,0.964 µM,"CCn1nc(C)cc1-c1nnc(-c2cc(C(N)=O)cc3c2cnn3C[C@H]2C[C@H]3CC[C@@H](C2)N3)[nH]1 [ZZZ065, 1-{[(1R,3r,5S)-8-azabicyclo[3.2.1]octan-3-yl]methyl}-4-[5-(1-ethyl-3-methyl-1H-pyrazol-5-yl)-4H-1,2,4-triazol-3-yl]-1H-indazole-6-carboxamide]"
